Data as given in publication PMC11992225, “Antibacterial compounds against non-growing and intracellular bacteria” (npj Antimicrobials and Resistance, 2025).

Test system: non-growing S. aureus
Assay: Time-dependent effects of drug treatment on regrowth, S. aureus
Type: cell-based, Staphylococcus aureus
Details: 10 µM, OD600 8 h after dilution
Experimental: For screening and concentration-dependent characterization of the hit compounds, we used a 24-h incubation to capture their effects, although the actual onset of their activity may occur much sooner. To assess the speed of action, we treated stationary-phase cultures of three organisms with compounds that had previously shown a strong regrowth delay at 10 µM. We selected compounds that, in earlier tests, strongly delayed regrowth, such that diluted cultures remained below an OD600 of 0.12 (indicating no growth) after 6 h for UPEC or 8 h for P. aeruginosa and S. aureus in drug-free medium.
We collected samples at different times during the 24-h incubation, diluted them 2500-fold, and measured the OD600 after 6 or 8 h of further incubation, respectively. […] Rifampicin acts quickly against non-growing S. aureus, while the effects of the other compounds increase gradually during incubation but are already apparent within the first hour of treatment.
Bacteria were cultivated in 1:4 diluted CA-MHB (40 mM HEPES, pH 7.4) for 24 h. Aliquots were dispensed into a 96-well plate, and compounds were added at a 10 µM concentration. […] The OD600 of the samples was measured to assess regrowth using a microplate reader (BioTek Synergy H1) after 6 h for UPEC and 8 h for P. aeruginosa and S. aureus. […]

SMILES: CO[C@H]1/C=C/O[C@@]2(C)Oc3c(C)c(O)c4c(O)c(c(/C=N/N5CCN(C)CC5)c(O)c4c3C2=O)NC(=O)/C(C)=C\C=C\[C@H](C)[C@H](O)[C@@H](C)[C@@H](O)[C@@H](C)[C@H](OC(C)=O)[C@@H]1C [Rifampicin]
- speed of action: regrowth delay over treatment time: acts quickly
